How the values were obtained:
Test in all cases: Test C
Assay type in all cases: in vivo
Set-up in all cases: key: 0 was no effect; 100 was complete control
Conditions in all cases: PREEMERGENCE
soybean (Glycine max) = tested on: soybean (Glycine max)
[1] = tested on: cocklebur (Xanthium strumarium)
[2] = tested on: hairy beggarticks (Bidens pilosa)
[3] = tested on: wild poinsettia (Euphorbia heterophylla)

| Structure (SMILES) | Plant response rating, Soybean (soybean (Glycine max); Rate 35 g/ha) | Plant response rating, Soybean (soybean (Glycine max); Rate 70 g/ha) | Plant response rating, Soybean (soybean (Glycine max); Rate 140 g/ha) | Plant response rating, Cocklebur ([1]; Rate 35 g/ha) | Plant response rating, Cocklebur ([1]; Rate 70 g/ha) | Plant response rating, Cocklebur ([1]; Rate 140 g/ha) | Plant response rating, H. beggarticks ([2]; Rate 35 g/ha) | Plant response rating, H. beggarticks ([2]; Rate 70 g/ha) | Plant response rating, H. beggarticks ([2]; Rate 140 g/ha) | Plant response rating, Wild poinsettia ([3]; Rate 35 g/ha) | Plant response rating, Wild poinsettia ([3]; Rate 70 g/ha) | Plant response rating, Wild poinsettia ([3]; Rate 140 g/ha) |
| --- | --- | --- | --- | --- | --- | --- | --- | --- | --- | --- | --- | --- |
| Cc1cnc(-c2ccc(C(F)(F)F)cc2)nc1C(Cl)c1cccc(C(F)(F)F)c1 (racemic) [Compound 21] | 0 | 0 | 5 | 0 | 0 | 0 | 0 | 0 | 40 | 0 | 5 | 5 |
| Cc1cnc(-n2cnc(C(F)(F)F)n2)nc1Cc1cccc(C(F)(F)F)c1 [Compound 43] | 0 | 5 | 55 | 0 | – | – | 0 | 5 | 100 | 10 | 50 | 60 |

Source: patent US6525001B1, “Substituted pyrimidine and pyridine herbicides” (Mid-American Commercialization Corporation, priority 1997, dated 2003)
